Reference: PubChem BioAssay AID179 (DTP/NCI, 2004)
Several values for one entry are separate records, joined by “and”; a condition that tells them apart may be missing. Identical values can stand only once. Activity calls are given as the source filed them.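 The calls were made as follows: active = compounds giving half or more protection of infected cells from virus-caused growth loss, again on retest; inactive = the rest.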 Where a SMILES comes first, the peptide text is derived from it. The star is where a group is joined. OSu = O=C1CCC(=O)N1O*; Bn = c1ccc(C*)cc1

Tested on: CEM cells HIV-1 protection, formazan growth assay
Assay: NCI AIDS Antiviral Assay
Conditions: for IC50: measured here: growth of uninfected CEM cells
Method in brief: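 Human CEM cells, uninfected and HIV-1-infected, received five drug concentrations, and growth was read by soluble formazan assay. Compounds giving at least 50% protection were retested; reproducible 100% protection defined confirmed active.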

| SMILES | EC50 | IC50 | outcome |
| --- | --- | --- | --- |
| O=C(CC1SC(=Nc2ccccc2Cl)NC1=O)Nc1ccc(Cl)cc1 (centres undefined) | > 631 µM | > 200 µM | – |
| CC(C)C1=CC(=O)C(C)(C2=NC(C)(C)CO2)c2ccccc21 (centres undefined) | > 437 µM | > 437 µM | – |
| OCC1CC(F)C(n2cnc3c(NOCc4ccccc4)ncnc32)O1 (centres undefined) | > 100 µM | > 100 µM | – |
| S=c1cn[nH]c2c(Br)cccc12 | > 89.1 µM | 67.6 µM | – |
| CCOC(=O)C1=C(O)c2c(OC)ccc(OC)c2C(=O)C1=O | > 427 µM | > 427 µM | – |
| C/C(CCc1ccccc1)=N\Nc1ccc([N+](=O)[O-])cc1[N+](=O)[O-] | > 21.9 µM | > 21.9 µM | – |
| COc1cc(OC)c(C#N)c(OC)c1C | – | – | inactive |
| O=C1CCCC1C(O)(C(F)(F)F)C(F)(F)F (centres undefined) | > 200 µM | > 200 µM | – |
| N#Cc1c(=O)c2cc([N+](=O)[O-])ccc2n2c1[nH]c1ccccc12 | > 200 µM | 3.55 µM | – |
| COC1=CC2=C3[C@H](Cc4cc5c(c(c4)Oc4ccc(cc4)C[C@@H]4c6cc7c(cc6CCN4C)OC[C@]3(O7)C1=O)OCO5)N(C)CC2 | – | – | inactive |
| O=C(O)C(Oc1ccc2cc(Br)ccc2c1)C(=O)O | – | – | inactive |
| C[C@@]1(CI)OC(=O)N2CCC[C@H]21 | > 891 µM | > 891 µM | – |
| CCCCCC1OC1(c1cc(Br)c(OC)c(C(=O)OC)c1)c1cc(Br)c(OC)c(C(=O)OC)c1 (centres undefined) | > 200 µM | 67.6 µM | – |
| COc1ccc(-c2cc[n+]([O-])c(C)c2C)c(OC)c1OC | > 871 µM | 83.2 µM | – |
| NC(Cc1ccc(OCc2ccccc2)cc1)C(=O)NC(Cc1ccccc1)C(=O)ON1C(=O)CCC1=O (centres undefined) (H-Tyr(Bn)-Phe-OSu; configuration not given here) | – | – | inactive |
| O=C1/C(=C/c2ccccc2)CSC/C1=C\c1ccccc1 | > 200 µM | 2.4 µM | – |
| COc1cc2c[n+](C)c3c(c2cc1OC)Cc1cc(OS(C)(=O)=O)c(OC)cc1-3 | > 57.5 µM | 10.5 µM | – |
| COc1ccc2c(c1)CCN=C2c1ccccc1CCCCl | > 200 µM | 2.34 µM | – |
| CC1=C(O)c2cn(C)cc2C(=O)C1=O | – | – | inactive |
| COC12OC3(C4OC41)C(C(=O)O[C@H]3CO[Si](C)(C)C(C)(C)C)C2C(=O)Oc1ccccc1 (some centres undefined) | > 200 µM | > 200 µM | – |
| O=C1OC(=O)c2ccc3c4c(ccc1c24)C(=O)OC3=O | > 933 µM | > 933 µM | – |

| SMILES | EC50 | IC50 | outcome |
| --- | --- | --- | --- |
| CC1(C(=O)O)CCCC2(C)C3=CC(=O)CCC3=CCC12 (centres undefined) | > 200 µM | 186 µM | – |
| CC(=O)C(CN1CCCCC1)C(c1ccccc1)c1c(O)c2ccccc2oc1=O (centres undefined) | > 120 µM | 117 µM | – |
| O=S(O)CCCCSSCC(O)C(O)CSSCCCCS(=O)O (centres undefined) | – | – | inactive |
| O=C(O)CCC1C(=O)C2CCN1CC2 (centres undefined) | > 200 µM | > 200 µM | – |
| CC1C2CC(C/C2=N/O)C1(C)C (centres undefined) | > 1480 µM | 437 µM | – |
| CCOc1ccc(-c2nc(-c3oc4ccccc4c(=O)c3OC(C)=O)cs2)cc1 | > 200 µM | 112 µM | – |
| CC(C)CCCC(C)[C@H]1CC[C@H]2[C@@H]3CC[C@H]4C[C@@H](CCC=C(c5cc(Cl)c(OCc6ccccc6[N+](=O)[O-])c(C(=O)O)c5)c5cc(Cl)c(OCc6ccccc6[N+](=O)[O-])c(C(=O)O)c5)CC[C@]4(C)[C@H]3CC[C@]12C (some centres undefined) | > 200 µM and 120 µM | > 200 µM and 166 µM | inactive |
| COc1cc2c(cc1OC)C1Cc3ccccc3CN1CCC2 (centres undefined) | > 200 µM | 141 µM | – |
| CCN1CCC(O)(/C=C/c2ccc(Cl)c(Cl)c2)C(C(=O)/C=C/c2ccc(Cl)c(Cl)c2)C1 (centres undefined) | > 25.1 µM | 0.513 µM | – |
| CCOC(=O)N1N=C(c2ccccc2)OC2(N3CCOCC3)CCC(C(C)(C)C)CC12 (centres undefined) | 30.2 µM | 31.6 µM | – |
| N#CNC(N)=Nc1cc2ccccc2c2ccccc12 | > 100 µM | 4.27 µM | – |
| CCOC(=O)CSc1[nH]c(NC(=S)Nc2ccccc2)c(C(N)=O)c1C(N)=O | > 200 µM | 97.7 µM | – |
| COc1ccc(CC2(Cc3ccc(OC)cc3)CCOC2=O)cc1 | > 21.9 µM | > 21.9 µM | – |
| ClCCCN1CCN(CCCl)CC1 | > 832 µM | 21.4 µM | – |
| Cc1ccc(/C=N/Nc2cc(C)c3cccc(C)c3n2)s1 | > 200 µM | 5.75 µM | – |
| CC(=O)[C@@H]1[C@@H](OC(=O)CCC(C)COC2OC(CO)C(O)C(O)C2O)C[C@H]2[C@@H]3CC=C4C[C@@H](OC5OC(CO)C(OC6OC(C)C(O)C(O)C6O)C(O)C5OC5OC(C)C(O)C(O)C5O)CC[C@]4(C)[C@H]3CC[C@]12C (some centres undefined) | > 200 µM | > 200 µM | – |
| CCCC1(CC(=O)O)OCCc2c1[nH]c1ccccc21 (centres undefined) | > 912 µM | 457 µM | – |
| Oc1ccc(Cc2nc3ccccc3[nH]2)cc1 | > 200 µM | > 200 µM | – |
| O=C(NCc1ccccc1)/C(=C/c1ccccc1)NC(=O)c1ccccc1 | > 200 µM | > 200 µM | – |
| CCN=C(Nc1cccc(C2=NCCN2)c1)c1ccc(C(=NCC)Nc2cccc(C3=NCCN3)c2)cc1 | 145 µM | > 200 µM | – |
| COC(=O)c1c(C#C[Si](C)(C)C)c(C#C[Si](C)(C)C)c(C#C[Si](C)(C)C)c(C#C[Si](C)(C)C)c1C(=O)OC | > 50.1 µM | > 50.1 µM | – |
